Assay results from PubChem BioAssay AID2060891 (Molecular Pharmacology Branch, DTP, NCI, 2025).
Blank lines part the entries; values can stand above or below the compound they belong to.

Test system: K98450-129-R-PDC complex spheroid growth, percent test/control
Assay: Anticancer human tumor K98450-129-R-PDC patient-derived colon adenocarcinoma cell line growth inhibition [RAS]
Settings: for IC50: curve of first compound; for viability, T/C: stronger effect = lower value
In short: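 Tumour cells grown as complex spheroids with HUVEC endothelial cells and mesenchymal stem cells, treated with RAS pathway inhibitor combinations. Each agent spans half-log steps from near clinical Cmax, or 10 microM where Cmax is unknown.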

[1] = second compound 0.000949 µM, first compound 0.0316 µM
[2] = second compound 0.000949 µM, first compound 0.1 µM
[3] = second compound 0.000949 µM, first compound 0.316 µM
[4] = second compound 0.000949 µM, first compound 1 µM
[5] = second compound 0.000949 µM, first compound 3.16 µM
[6] = second compound 0.000949 µM, first compound 10 µM
[7] = second compound 0.003 µM, first compound 0.0316 µM
[8] = second compound 0.003 µM, first compound 0.1 µM
[9] = second compound 0.003 µM, first compound 0.316 µM
[10] = second compound 0.003 µM, first compound 1 µM
[11] = second compound 0.003 µM, first compound 3.16 µM
[12] = second compound 0.003 µM, first compound 10 µM
[13] = second compound 0.00949 µM, first compound 0.0316 µM
[14] = second compound 0.00949 µM, first compound 0.1 µM
[15] = second compound 0.00949 µM, first compound 0.316 µM
[16] = second compound 0.00949 µM, first compound 1 µM
[17] = second compound 0.00949 µM, first compound 3.16 µM
[18] = second compound 0.00949 µM, first compound 10 µM
[19] = second compound 0.03 µM, first compound 0.0316 µM
[20] = second compound 0.03 µM, first compound 0.1 µM
[21] = second compound 0.03 µM, first compound 0.316 µM
[22] = second compound 0.03 µM, first compound 1 µM
[23] = second compound 0.03 µM, first compound 3.16 µM
[24] = second compound 0.03 µM, first compound 10 µM
[25] = second compound 0.0949 µM, first compound 0.0316 µM
[26] = second compound 0.0949 µM, first compound 0.1 µM
[27] = second compound 0.0949 µM, first compound 0.316 µM
[28] = second compound 0.0949 µM, first compound 1 µM
[29] = second compound 0.0949 µM, first compound 3.16 µM
[30] = second compound 0.0949 µM, first compound 10 µM
[31] = second compound 0.3 µM, first compound 0.0316 µM
[32] = second compound 0.3 µM, first compound 0.1 µM
[33] = second compound 0.3 µM, first compound 0.316 µM
[34] = second compound 0.3 µM, first compound 1 µM
[35] = second compound 0.3 µM, first compound 3.16 µM
[36] = second compound 0.3 µM, first compound 10 µM
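Further: spheroids exposed to agents for seven days before the viability readout.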
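Wherever viability, T/C is given: luminescence used as a proxy for viable cell amount.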

IC50 (second compound 0.000949 µM): > 10000 nM
IC50 (second compound 0.003 µM): > 10000 nM
IC50 (second compound 0.00949 µM): < 31.6 nM
IC50 (second compound 0.03 µM): < 31.6 nM
IC50 (second compound 0.0949 µM): < 31.6 nM
IC50 (second compound 0.3 µM): < 31.6 nM
SMILES: CC(C)NCC(C(=O)N1CCN(c2ncnc3c2C(C)CC3O)CC1)c1ccc(Cl)cc1 (stereo not drawn) + CCn1c(-c2cccnc2C(C)OC)c2c3cc(ccc31)N1CCOC(CC(NC(=O)C(C(C)C)N(C)C(=O)C3(F)CCN(C(=O)C#CC(C)(C)N(C)C)CC3)C(=O)N3CCCC(N3)C(=O)OCC(C)(C)C2)C1
viability, T/C [1]: 64.3%
viability, T/C [2]: 61.4%
viability, T/C [3]: 83.3%
viability, T/C [4]: 73.7%
viability, T/C [5]: 73%
viability, T/C [6]: 70.4%
viability, T/C [7]: 68.8%
viability, T/C [8]: 46.6%
viability, T/C [9]: 61%
viability, T/C [10]: 51.2%
viability, T/C [11]: 64.1%
viability, T/C [12]: 47%
viability, T/C [13]: 45.4%
viability, T/C [14]: 37.7%
viability, T/C [15]: 42.9%
viability, T/C [16]: 34.6%
viability, T/C [17]: 50.8%
viability, T/C [18]: 39.6%
viability, T/C [19]: 33%
viability, T/C [20]: 39%
viability, T/C [21]: 36.8%
viability, T/C [22]: 34%
viability, T/C [23]: 38.1%
viability, T/C [24]: 35%
viability, T/C [25]: 32.4%
viability, T/C [26]: 42.1%
viability, T/C [27]: 34.7%
viability, T/C [28]: 36.4%
viability, T/C [29]: 36%
viability, T/C [30]: 34.5%
viability, T/C [31]: 31.6%
viability, T/C [32]: 38.5%
viability, T/C [33]: 34.4%
viability, T/C [34]: 32.6%
viability, T/C [35]: 33.7%
viability, T/C [36]: 32.2%

IC50 (second compound 0.000949 µM): 46.3 nM
IC50 (second compound 0.003 µM): 2.56 nM
IC50 (second compound 0.00949 µM): 0.449 nM
IC50 (second compound 0.03 µM): < 0.316 nM
IC50 (second compound 0.0949 µM): < 0.316 nM
IC50 (second compound 0.3 µM): < 0.316 nM
SMILES: CC(C)n1nc(-c2ccc3oc(N)nc3c2)c2c(N)ncnc21 + CCn1c(-c2cccnc2C(C)OC)c2c3cc(ccc31)N1CCOC(CC(NC(=O)C(C(C)C)N(C)C(=O)C3(F)CCN(C(=O)C#CC(C)(C)N(C)C)CC3)C(=O)N3CCCC(N3)C(=O)OCC(C)(C)C2)C1
viability, T/C (second compound 0.000949 µM, first compound 0.000316 µM): 58%
viability, T/C (second compound 0.000949 µM, first compound 0.001 µM): 66.9%
viability, T/C (second compound 0.000949 µM, first compound 0.00316 µM): 65.7%
viability, T/C (second compound 0.000949 µM, first compound 0.01 µM): 63.2%
viability, T/C [1]: 50.5%
viability, T/C [2]: 41.8%
viability, T/C (second compound 0.003 µM, first compound 0.000316 µM): 58.5%
viability, T/C (second compound 0.003 µM, first compound 0.001 µM): 53.4%
viability, T/C (second compound 0.003 µM, first compound 0.00316 µM): 53%
viability, T/C (second compound 0.003 µM, first compound 0.01 µM): 38.5%
viability, T/C [7]: 40.6%
viability, T/C [8]: 31.9%
viability, T/C (second compound 0.00949 µM, first compound 0.000316 µM): 52.1%
viability, T/C (second compound 0.00949 µM, first compound 0.001 µM): 46%
viability, T/C (second compound 0.00949 µM, first compound 0.00316 µM): 34.8%
viability, T/C (second compound 0.00949 µM, first compound 0.01 µM): 33.3%
viability, T/C [13]: 30.5%
viability, T/C [14]: 28.9%
viability, T/C (second compound 0.03 µM, first compound 0.000316 µM): 35.2%
viability, T/C (second compound 0.03 µM, first compound 0.001 µM): 40%
viability, T/C (second compound 0.03 µM, first compound 0.00316 µM): 36.5%
viability, T/C (second compound 0.03 µM, first compound 0.01 µM): 23.9%
viability, T/C [19]: 29.1%
viability, T/C [20]: 25.6%
viability, T/C (second compound 0.0949 µM, first compound 0.000316 µM): 34.3%
viability, T/C (second compound 0.0949 µM, first compound 0.001 µM): 32%
viability, T/C (second compound 0.0949 µM, first compound 0.00316 µM): 32.6%
viability, T/C (second compound 0.0949 µM, first compound 0.01 µM): 28.6%
viability, T/C [25]: 30.6%
viability, T/C [26]: 22.7%
viability, T/C (second compound 0.3 µM, first compound 0.000316 µM): 29.4%
viability, T/C (second compound 0.3 µM, first compound 0.001 µM): 35%
viability, T/C (second compound 0.3 µM, first compound 0.00316 µM): 30.1%
viability, T/C (second compound 0.3 µM, first compound 0.01 µM): 27.5%
viability, T/C [31]: 25.9%
viability, T/C [32]: 23.7%

IC50 (second compound 0.000949 µM): > 10000 nM
IC50 (second compound 0.003 µM): 829 nM
IC50 (second compound 0.00949 µM): < 31.6 nM
IC50 (second compound 0.03 µM): < 31.6 nM
IC50 (second compound 0.0949 µM): < 31.6 nM
IC50 (second compound 0.3 µM): < 31.6 nM
SMILES: CC(Nc1ccc2c(c1)OCCn1cc(N3C(=O)OCC3C(F)F)nc1-2)C(N)=O (stereo not drawn) + CCn1c(-c2cccnc2C(C)OC)c2c3cc(ccc31)N1CCOC(CC(NC(=O)C(C(C)C)N(C)C(=O)C3(F)CCN(C(=O)C#CC(C)(C)N(C)C)CC3)C(=O)N3CCCC(N3)C(=O)OCC(C)(C)C2)C1
viability, T/C [1]: 77.4%
viability, T/C [2]: 70.5%
viability, T/C [3]: 72.1%
viability, T/C [4]: 60.8%
viability, T/C [5]: 71.5%
viability, T/C [6]: 51.3%
viability, T/C [7]: 57.7%
viability, T/C [8]: 60.8%
viability, T/C [9]: 51.5%
viability, T/C [10]: 45.2%
viability, T/C [11]: 48.9%
viability, T/C [12]: 34.7%
viability, T/C [13]: 46.6%
viability, T/C [14]: 34.3%
viability, T/C [15]: 35.8%
viability, T/C [16]: 26.9%
viability, T/C [17]: 37.2%
viability, T/C [18]: 23%
viability, T/C [19]: 37.9%
viability, T/C [20]: 38.6%
viability, T/C [21]: 32.4%
viability, T/C [22]: 25%
viability, T/C [23]: 27.3%
viability, T/C [24]: 21.8%
viability, T/C [25]: 34.4%
viability, T/C [26]: 29.4%
viability, T/C [27]: 29.9%
viability, T/C [28]: 24.2%
viability, T/C [29]: 24%
viability, T/C [30]: 19.4%
viability, T/C [31]: 34.6%
viability, T/C [32]: 27%
viability, T/C [33]: 31.1%
viability, T/C [34]: 23.6%
viability, T/C [35]: 27.5%
viability, T/C [36]: 18.9%

IC50 (second compound 0.000949 µM): > 10000 nM
IC50 (second compound 0.003 µM): > 10000 nM
IC50 (second compound 0.00949 µM): > 10000 nM
IC50 (second compound 0.03 µM): < 31.6 nM
IC50 (second compound 0.0949 µM): < 31.6 nM
IC50 (second compound 0.3 µM): < 31.6 nM
SMILES: C[C@@H](NC(=O)c1ncnc(N)c1Cl)c1ncc(C(=O)Nc2cc(C(F)(F)F)c(Cl)cn2)s1 + CCn1c(-c2cccnc2C(C)OC)c2c3cc(ccc31)N1CCOC(CC(NC(=O)C(C(C)C)N(C)C(=O)C3(F)CCN(C(=O)C#CC(C)(C)N(C)C)CC3)C(=O)N3CCCC(N3)C(=O)OCC(C)(C)C2)C1
viability, T/C [1]: 87.9%
viability, T/C [2]: 87.2%
viability, T/C [3]: 87%
viability, T/C [4]: 70.2%
viability, T/C [5]: 54.4%
viability, T/C [6]: 61.5%
viability, T/C [7]: 57.9%
viability, T/C [8]: 64.3%
viability, T/C [9]: 63.5%
viability, T/C [10]: 61.6%
viability, T/C [11]: 66.2%
viability, T/C [12]: 53.7%
viability, T/C [13]: 57.8%
viability, T/C [14]: 55%
viability, T/C [15]: 54.5%
viability, T/C [16]: 55.3%
viability, T/C [17]: 59.2%
viability, T/C [18]: 48.6%
viability, T/C [19]: 40.3%
viability, T/C [20]: 44.5%
viability, T/C [21]: 53.6%
viability, T/C [22]: 61.6%
viability, T/C [23]: 54.1%
viability, T/C [24]: 46.9%
viability, T/C [25]: 39.2%
viability, T/C [26]: 40.5%
viability, T/C [27]: 53.3%
viability, T/C [28]: 55%
viability, T/C [29]: 62.3%
viability, T/C [30]: 49.9%
viability, T/C [31]: 32.4%
viability, T/C [32]: 43.9%
viability, T/C [33]: 35.2%
viability, T/C [34]: 53.7%
viability, T/C [35]: 56.3%
viability, T/C [36]: 39.3%
